Laboratory results as given in PubChem BioAssay (NCI).
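Each compound was tested at five concentrations against cells in 96-well plates for 48 hours. The concentration for 50% growth inhibition is given as GI50. TGI is the concentration that stops growth completely.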

Tests used:
Experiment in all cases: NCI anticancer screen, dose series, 48 h
SNB-19 CNS = test system: SNB-19 CNS
COLO 205 colon = test system: COLO 205 colon
HCT-116 colon = test system: HCT-116 colon
HCC-2998 colon = test system: HCC-2998 colon
786-0 renal = test system: 786-0 renal
CAKI-1 renal = test system: CAKI-1 renal
LOX IMVI melanoma = test system: LOX IMVI melanoma
T-47D breast = test system: T-47D breast
HS 578T breast = test system: HS 578T breast
HOP-92 NSCLC = test system: HOP-92 NSCLC
BT-549 breast = test system: BT-549 breast
A549 NSCLC = test system: A549 NSCLC
SK-MEL-5 melanoma = test system: SK-MEL-5 melanoma
SK-OV-3 ovarian = test system: SK-OV-3 ovarian
OVCAR-3 ovarian = test system: OVCAR-3 ovarian
PC-3 prostate = test system: PC-3 prostate
NCI-H522 lung = test system: NCI-H522 lung
SF-539 CNS = test system: SF-539 CNS
RXF 393 renal = test system: RXF 393 renal
SF-268 CNS = test system: SF-268 CNS
SF-295 CNS = test system: SF-295 CNS
MCF7 breast = test system: MCF7 breast
SR leukemia = test system: SR leukemia
SNB-75 CNS = test system: SNB-75 CNS
MALME-3M melanoma = test system: MALME-3M melanoma
OVCAR-4 ovarian = test system: OVCAR-4 ovarian
UACC-257 melanoma = test system: UACC-257 melanoma
TK-10 renal = test system: TK-10 renal
MDA-MB-231 breast = test system: MDA-MB-231 breast
EKVX NSCLC = test system: EKVX NSCLC
ACHN renal = test system: ACHN renal
OVCAR-5 ovarian = test system: OVCAR-5 ovarian
SK-MEL-2 melanoma = test system: SK-MEL-2 melanoma
SW-620 colon = test system: SW-620 colon
UO-31 renal = test system: UO-31 renal
HT29 colon = test system: HT29 colon
OVCAR-8 ovarian = test system: OVCAR-8 ovarian
UACC-62 melanoma = test system: UACC-62 melanoma
CCRF-CEM leukemia = test system: CCRF-CEM leukemia
K-562 leukemia = test system: K-562 leukemia
KM12 colon = test system: KM12 colon
U251 CNS = test system: U251 CNS
HCT-15 colon = test system: HCT-15 colon
IGROV1 ovarian = test system: IGROV1 ovarian
NCI/ADR-RES ovarian = test system: NCI/ADR-RES ovarian
A498 renal = test system: A498 renal
HL-60(TB) leukemia = test system: HL-60(TB) leukemia
SK-MEL-28 melanoma = test system: SK-MEL-28 melanoma
SN12C renal = test system: SN12C renal
DU-145 prostate = test system: DU-145 prostate
NCI-H23 lung = test system: NCI-H23 lung
RPMI-8226 leukemia = test system: RPMI-8226 leukemia
MOLT-4 leukemia = test system: MOLT-4 leukemia
NCI-H460 lung = test system: NCI-H460 lung

`COc1ccc2c(c1)CCCN2c1c2ccccc2nc2ccccc12` was tested, and the GI50 (SNB-19 CNS) was 0.546 µM, the TGI (SNB-19 CNS) was greater than 100 µM and the GI50 (COLO 205 colon) was 0.269 µM. It also gave a TGI (COLO 205 colon) of 0.849 µM, a GI50 (HCT-116 colon) of 0.334 µM and a TGI (HCT-116 colon) of 14.3 µM. It also gave a GI50 (HCC-2998 colon) of 0.311 µM, a TGI (HCC-2998 colon) of 1.04 µM and a GI50 (786-0 renal) of 0.549 µM. The TGI (786-0 renal) was 9.3 µM, the GI50 (CAKI-1 renal) was 0.383 µM and the TGI (CAKI-1 renal) was greater than 100 µM. For the same compound, the GI50 (LOX IMVI melanoma) was 0.505 µM, the TGI (LOX IMVI melanoma) was 12.1 µM and the GI50 (T-47D breast) was 0.662 µM. For the same compound, the TGI (T-47D breast) was greater than 100 µM, the GI50 (HS 578T breast) was 0.314 µM and the TGI (HS 578T breast) was 5.86 µM. The GI50 (HOP-92 NSCLC) was 0.683 µM, the TGI (HOP-92 NSCLC) was 6.46 µM and the GI50 (BT-549 breast) was 0.49 µM. It also gave a TGI (BT-549 breast) of 6.28 µM, a GI50 (A549 NSCLC) of 0.418 µM and a TGI (A549 NSCLC) greater than 100 µM. It also gave a GI50 (SK-MEL-5 melanoma) of 0.35 µM, a TGI (SK-MEL-5 melanoma) of 1.66 µM and a GI50 (SK-OV-3 ovarian) of 0.652 µM. The TGI (SK-OV-3 ovarian) was greater than 100 µM, the GI50 (OVCAR-3 ovarian) was 0.275 µM and the TGI (OVCAR-3 ovarian) was 0.75 µM. For the same compound, the GI50 (PC-3 prostate) was 0.354 µM, the TGI (PC-3 prostate) was greater than 100 µM and the GI50 (NCI-H522 lung) was 0.384 µM. The TGI (NCI-H522 lung) was 16.2 µM, the GI50 (SF-539 CNS) was 0.251 µM and the TGI (SF-539 CNS) was 0.741 µM. The GI50 (RXF 393 renal) was 0.27 µM, the TGI (RXF 393 renal) was 0.786 µM and the GI50 (SF-268 CNS) was 0.933 µM. It also gave a TGI (SF-268 CNS) greater than 100 µM, a GI50 (SF-295 CNS) of 0.281 µM and a TGI (SF-295 CNS) greater than 100 µM. The GI50 (MCF7 breast) was 0.316 µM, the TGI (MCF7 breast) was 33.2 µM and the GI50 (SR leukemia) was 0.383 µM. The TGI (SR leukemia) was greater than 100 µM, the GI50 (SNB-75 CNS) was 0.2 µM and the TGI (SNB-75 CNS) was 0.821 µM. The GI50 (MALME-3M melanoma) was 4.26 µM, the TGI (MALME-3M melanoma) was greater than 100 µM and the GI50 (OVCAR-4 ovarian) was 0.812 µM. It also gave a TGI (OVCAR-4 ovarian) greater than 100 µM, a GI50 (UACC-257 melanoma) of 8.11 µM and a TGI (UACC-257 melanoma) greater than 100 µM. It also gave a GI50 (TK-10 renal) of 3.38 µM, a TGI (TK-10 renal) greater than 100 µM and a GI50 (MDA-MB-231 breast) of 0.665 µM. It also gave a TGI (MDA-MB-231 breast) greater than 100 µM, a GI50 (EKVX NSCLC) of 0.932 µM and a TGI (EKVX NSCLC) greater than 100 µM. For the same compound, the GI50 (ACHN renal) was 0.611 µM, the TGI (ACHN renal) was greater than 100 µM and the GI50 (OVCAR-5 ovarian) was 0.544 µM. For the same compound, the TGI (OVCAR-5 ovarian) was greater than 100 µM, the GI50 (SK-MEL-2 melanoma) was 0.813 µM and the TGI (SK-MEL-2 melanoma) was greater than 100 µM. The GI50 (SW-620 colon) was 0.403 µM, the TGI (SW-620 colon) was greater than 100 µM and the GI50 (UO-31 renal) was 0.69 µM. It also gave a TGI (UO-31 renal) greater than 100 µM, a GI50 (HT29 colon) of 0.36 µM and a TGI (HT29 colon) greater than 100 µM. The GI50 (OVCAR-8 ovarian) was 0.481 µM, the TGI (OVCAR-8 ovarian) was greater than 100 µM and the GI50 (UACC-62 melanoma) was 0.38 µM. It also gave a TGI (UACC-62 melanoma) of 3.54 µM, a GI50 (CCRF-CEM leukemia) of 0.353 µM and a TGI (CCRF-CEM leukemia) of 71.6 µM. The GI50 (K-562 leukemia) was 0.341 µM, the TGI (K-562 leukemia) was greater than 100 µM and the GI50 (KM12 colon) was 0.386 µM. The TGI (KM12 colon) was 15.6 µM, the GI50 (U251 CNS) was 0.379 µM and the TGI (U251 CNS) was greater than 100 µM. For the same compound, the GI50 (HCT-15 colon) was 0.314 µM, the TGI (HCT-15 colon) was 25.6 µM and the GI50 (IGROV1 ovarian) was 0.811 µM. The TGI (IGROV1 ovarian) was 34.7 µM, the GI50 (NCI/ADR-RES ovarian) was 0.275 µM and the TGI (NCI/ADR-RES ovarian) was 0.771 µM. The GI50 (A498 renal) was 0.269 µM, the TGI (A498 renal) was 0.808 µM and the GI50 (HL-60(TB) leukemia) was 0.298 µM. The TGI (HL-60(TB) leukemia) was 1.09 µM, the GI50 (SK-MEL-28 melanoma) was 0.878 µM and the TGI (SK-MEL-28 melanoma) was greater than 100 µM. For the same compound, the GI50 (SN12C renal) was 0.73 µM, the TGI (SN12C renal) was greater than 100 µM and the GI50 (DU-145 prostate) was 0.38 µM. It also gave a TGI (DU-145 prostate) greater than 100 µM, a GI50 (NCI-H23 lung) of 0.356 µM and a TGI (NCI-H23 lung) of 5.48 µM. For the same compound, the GI50 (RPMI-8226 leukemia) was 0.431 µM, the TGI (RPMI-8226 leukemia) was 4.98 µM and the GI50 (MOLT-4 leukemia) was 0.4 µM. The TGI (MOLT-4 leukemia) was greater than 100 µM, the GI50 (NCI-H460 lung) was 0.358 µM and the TGI (NCI-H460 lung) was greater than 100 µM.
